Experimental data published in US20220287935A1, “CANNABINOID-CONTAINING SKIN CARE COMPOSITIONS” (Cannasmetics Ltd., priority 2021, published 2022).

Assays:
HaCaT cells [1] = test: Cellular ROS production from HaCaT cells in the presence of H2O2 (DCFDA assay); assay type: cell-based; conditions: each component alone, 5 hours, FIG. 9A
Procedure: Cellular ROS production was measured using a DCFDA assay kit (Abcam, ab113851)) according to the manufacturer's protocol. DCFDA (2′,7′-dichlorofluorescein diacetate), a cell-permeable fluorogenic dye, is deacetylated to a non-fluorescent compound by cellular esterases and later oxidized into highly fluorescent DCF (2′,7′-dichlorofluorescein) by ROS, allowing measurement of hydroxyl, peroxyl and other ROS activity within the cell.
HaCaT cells were seeded at a density of 2.5×10^4 for 24 hours on 96-well plates. After 24 hours, the cells were washed twice with 1× buffer assay and then incubated with 25 μM DCFDA in 1× buffer assay in a 37° C. incubator for 45 minutes. After two washes with 1× buffer assay, the cells were exposed to the tested samples and to 0.25 M H202, each added separately to the medium.
Cell fluorescence in the 96-well plates was measured at 488 nm excitation and 525 nm emission using a Tecan spark plate reader (Tecan US, Inc. Morrisville, NC), 5 hours after the addition of the tested samples or sample combinations.
The control used as reference are cells treated only with H2O2. The results are shown as percentage of the control.

HaCaT cells [2] = test: Viability of HaCaT cells, MTT assay; assay type: cell-based; conditions: alone, FIG. 8A
Procedure: (§1) Cell lines were cultured according to standard mammalian tissue culture protocols and sterile technique. Human monocytes THP-1 cells were cultured in RPMI medium 1640. HaCaT cells were cultured in DMEME medium. All media was supplemented with 10% fetal bovine serum, streptomycin ([…]), penicillin (100 U/ml) and Nystatin (12.5 U/ml). Cells were incubated in 5% CO2 at 37° C. All tissue culture cells were maintained in 75 cm^2 cell culture treated flask (Eppendorf) and all the media and supplements were obtained from Biological Industries. Treatment were performed by plating cells in a 96 micro well delta surface plates (Eppendorf) in a starting confluence of 1×10^4 cells/well.
(§2) The viability of the cells following treatment was determined using a commercially available MTT assay kit (Abcam, ab146345) and performed according to manufacturer's instructions. Briefly, cells were seeded in a 96-well plate at a density of 1×10^4 cells/well (n=4) in 100 μl cell specific media. After overnight incubation, cells were exposed to varying concentrations of isolated components (CBD, CBG and PSO, each alone) and combination samples as described in Example 1, in 100 μl of specific media, by adding a stock solution to the medium in amount that provides the indicated concentration (see, Tables 1, 2A and 2B). Then, plates were incubated in a humidified atmosphere containing 5% CO2 in air at 37° C. for 24 hours. According to the MTT standard protocol, after 24 hours treatment, the media was removed, and all cells were incubated with serum-free media containing 0.5 mg/ml MTT for 4 hours at the incubator. The MTT purple crystals formed by the viable cells were dissolved using isopropanol containing 0.04 mol/L HCl. The quantification was determined by measuring the optical density at 570 nm in a spectrophotometer reader (Spark, Tecan). Results are presented as proportional viability (%) by comparing between treated and untreated groups.
(§3) Cytotoxic potential of an extract was determined according to the following criteria:
Cytotoxic: Viability is reduced to less than 70% of vehicle control. […]

[3] = test system: TNFα secretion from LPS-stimulated THP-1 cells; test: TNFα secretion from LPS-stimulated THP-1 cells (HTRF); assay type: cell-based, Human; conditions: for ratio of TNFα secretion to cells viability: alone; for TNFα secretion (percentage of the control): each alone, highest concentration, FIG. 2A
Procedure: (§4) Human THP-1 monocytes were seeded in a 96-well plate (Eppendorf) at a density of 3×10^5 cells/well (n=4) in 100 μl cell specific media and was differentiated using phorbol-12-myristate 13-acetate (PMA) (Sigma-Aldrich) at a final concentration of 200 nM. PMA supplemented media was removed after 72 hours. Cells were then washed twice with PBS and rested in fresh PMA-free media for further 24 hours in order to obtain phenotypic characteristics of macrophages (Daigneault et al., 2010, PLoS One, 5, e8668).
(§5) After 24 hours, cells were stimulated by Lipopolysaccharides (LPS) at a final concentration of 1μg/ml and were treated with the samples using specific media containing 5% FBS (100 μL of media solution containing the tested materials at the indicated concentration; see, Example 1).
(§6) After 24 hours, the cells supernatants were harvested and diluted up to 5 times in working media to avoid the hook effect. HTRF assays were performed in white 96-well plate (CisBio Bioassays) with a total working volume of 20 μL. All HTRF reagents were purchased from CisBio Bioassays and reconstituted according to the supplier protocols. For each assay 16 μL of diluted supernatants samples were incubated with 4 μL mixed solution containing donor and acceptor antibodies. Antibodies for the detection of TNFα and IL6 were used.
(§7) After 2 hours incubation, HTRF signals were measured using SPARK® multimode microplate reader with an excitation filter at 320 nm and fluorescence wavelength measurement at 620 and 665 nm, an integration delay of 60 μs and an integration time of 400 μs. Results were analyzed with a two-wavelength signal ratio: [intensity (665 nm)/intensity (620 nm)]*104. Calculation and analysis of cytokines release was performed according to the supplier protocols and using the 4PL 1/Y2 formula in GraphPad Prism software.

[4] = Viability of THP-1 cells, MTT assay; assay type: cell-based, Human; conditions: human, THP-1 cells (monocytes); for viability at 24 h: CBD and CBG alone, treatments reported with the IL6 data, read-out: viability levels
Procedure: as §1, §2, §3
(§8) Cytotoxic: Viability is reduced to less than 70% of vehicle control.
(§9) Non-cytotoxic: Viability is >70% of vehicle control

THP-1 cells = test: Viability of THP-1 cells, MTT assay; assay type: cell-based, Human; conditions: 24 hours
Procedure: as §1, §2, §3, §8, §9

[5] = test system: IL6 secretion from LPS-stimulated THP-1 cells; test: IL6 secretion from LPS-stimulated THP-1 cells (HTRF); assay type: cell-based, Human; conditions: alone
Procedure: as §4, §5, §6, §7

[6] = alone, reported with the TNFα data
[7] = each component alone, all tested concentrations, FIG. 1A-B

Row | SMILES | ROS production from HaCaT cells, effect relative to the solvent (ethanol) (HaCaT cells [1]) | toxicity to keratinocyte cells (HaCaT cells [2]; only at a high concentration) | ratio of TNFα secretion to cells viability ([3]; 20 μM) | ratio of TNFα secretion to cells viability ([3]; medium concentration, FIG. 2B) | TNFα secretion (percentage of the control) [3] | viability at 24 h [4] [%] | viability at 24 h, 20 µM [4, 6] [%] | THP-1 cells viability (THP-1 cells; [7]) | ratio of IL6 secretion to cells viability ([5]; 40 μM) | ratio between IL-6 secretion and viability ([5]; highest concentration, FIG. 5B) | toxicity to keratinocyte cells (HaCaT cells [2]; high concentration, e.g. 40 μM) | viability of HaCaT cells (toxicity) (HaCaT cells [2]; higher concentration) | ratio of TNFα secretion to cells viability ([3]; 10 μM) | ratio of TNFα secretion to cells viability ([3]; lowest concentration, FIG. 2B) | viability at 24 h, 10 µM ([4]; alone, 10 μM, reported with the TNFα data) [%] | THP-1 cells viability (THP-1 cells; 20 μM, FIG. 1A) | ratio of IL6 secretion to cells viability ([5]; lowest tested concentration of 10 μM)
1 | CCCCCc1cc(O)c(C/C=C(\C)CCC=C(C)C)c(O)c1 [CBG, cannabigerol] | very mild effect | mild toxicity | about 0.6 | lowest ratio | elevation of TNFα secretion | > 140 | 140 | enhanced viability | 0.29 | high reduction of the ratio | – | – | – | – | – | – | –
2 | C=C(C)[C@@H]1CCC(C)=C[C@H]1c1c(O)cc(CCCCC)cc1O [CBD, cannabidiol] | very mild effect | – | about 0.6 | – | elevation of TNFα secretion | > 140 | 140 | enhanced viability | – | – | toxic | toxic | about 0.6 | lowest ratio | 140 | most pronounced effect | 0.23
